In turn, `O=c1c2c[nH]nc2ncn1Cc1ccncc1` [Compound 12, 5-(4-pyridinylmethyl)-2,5-dihydropyrazolo[3,4-d]-pyrimidin-4-one] displayed a melting point of 220 to 221 °C. For `Cn1cc2c(=O)n(Cc3c(F)cccc3Cl)cnc2n1` [Compound 23, 5-(2-chloro-6-fluorobenzyl)-2-methyl-2,5-dihydropyrazolo[3,4-d]pyrimidin-4-one] the value was 216 to 218 °C; for `O=c1c2c[nH]nc2ncn1Cc1ccccn1` [Compound 10, 5-(2-pyridinylmethyl)-2,5-dihydropyrazolo[3,4-d]-pyrimidin-4-one], 224 to 225 °C. For `COc1ccccc1Cn1cnc2n[nH]cc2c1=O` [Compound 7, 5-(2-methoxybenzyl)-2,5-dihydropyrazolo[3,4-d]-pyrimidin-4-one] the value was 188 to 189 °C; for `Cc1nc2n[nH]cc2c(=O)n1Cc1ccccc1Cl` [Compound 61, 5-(2-chlorobenzyl)-6-methyl-2,5-dihydropyrazolo[3,4-d]-pyrimidin-4-one], 222 to 224 °C; for `O=c1c2cn(Cc3ccccc3)nc2ncn1Cc1ccccn1` [Compound 57, 5-(2-pyridinylmethyl)-2-benzyl-2,5-dihydropyrazolo[3,4-d]-pyrimidin-4-one], 182 to 184 °C. In the case of `CCCn1cc2c(=O)n(Cc3ccc(C)cc3)cnc2n1` [Compound 40, 5-(4-methylbenzyl)-2-propyl-2,5-dihydropyrazolo[3,4-d]-pyrimidin-4-one] it was 157 to 158 °C; in that of `Cn1cc2c(=O)n(Cc3ccccc3[N+](=O)[O-])cnc2n1` [Compound 26, 5-(2-nitrobenzyl)-2-methyl-2,5-dihydropyrazolo[3,4-d]-pyrimidin-4-one], 220 to 222 °C.

In turn, `Cc1nc2nn(C)cc2c(=O)n1Cc1c(F)cccc1F` [Compound 64, 5-(2,6-difluorobenzyl)-2,6-dimethyl-2,5-dihydropyrazolo[3,4-d]pyrimidin-4-one] had a melting point of 201 to 202 °C. For `Cc1nc2nn(C)cc2c(=O)n1Cc1ccccc1C(F)(F)F` [Compound 63, 5-(2-trifluoromethylbenzyl)-2,6-dimethyl-2,5-dihydropyrazolo[3,4-d]pyrimidin-4-one] the value was 192 to 193 °C; for `Cn1cc2c(=O)n(Cc3c(Cl)cccc3Cl)cnc2n1` [Compound 25, 5-(2,6-dichlorobenzyl)-2-methyl-2,5-dihydro-pyrazolo[3,4-d]pyrimidin-4-one], 200 to 202 °C. For `O=c1c2cn(Cc3ccccc3)nc2ncn1Cc1c(F)cccc1F` [Compound 56, 5-(2,6-difluorobenzyl)-2-benzyl-2,5-dihydropyrazolo[3,4-d]pyrimidin-4-one] the value was 173 to 174 °C; for `Cn1cc2c(=O)n(Cc3ccc(Cl)cc3)cnc2n1` [Compound 27, 5-(4-chlorobenzyl)-2-methyl-2,5-dihydropyrazolo[3,4-d]-pyrimidin-4-one], 209 to 210 °C. For `CCn1cc2c(=O)n(Cc3c(F)cccc3Cl)cnc2n1` [Compound 35, 5-(2-chloro-6-fluorobenzyl)-2-ethyl-2,5-dihydropyrazolo[3,4-d]pyrimidin-4-one] the value was 207 to 209 °C; for `CCCn1cc2c(=O)n(Cc3ccccn3)cnc2n1` [Compound 42, 5-(2-pyridinylmethyl)-2-propyl-2,5-dihydropyrazolo[3,4-d]-pyrimidin-4-one], 179 to 181 °C; for `O=c1c2cn(-c3ccccc3)nc2ncn1Cc1c(F)cccc1F` [Compound 52, 5-(2,6-difluorobenzyl)-2-phenyl-2,5-dihydropyrazolo[3,4-d]pyrimidin-4-one], 189 to 191 °C. For `CC(C)n1cc2c(=O)n(Cc3c(F)cccc3F)cnc2n1` [Compound 45, 5-(2,6-difluorobenzyl)-2-isopropyl-2,5-dihydropyrazolo[3,4-d]pyrimidin-4-one], the melting point lay in the range of 156 to 157 °C. In the case of `O=c1c2cn(Cc3ccccn3)nc2ncn1Cc1c(F)cccc1F` [Compound 59, 5-(2,6-difluorobenzyl)-2-pyridin-2-ylmethyl-2,5-dihydropyrazolo[3,4-d]pyrimidin-4-one] it was 174 to 175 °C; in that of `Cn1cc2c(=O)n(Cc3ccccc3I)cnc2n1` [Compound 29, 5-(2-iodobenzyl)-2-methyl-2,5-dihydropyrazolo[3,4-d]-pyrimidin-4-one], 187 to 190 °C; in that of `O=c1c2cn(Cc3ccccc3)nc2ncn1Cc1c(F)cccc1Cl` [Compound 54, 5-(2-chloro-6-fluorobenzyl)-2-benzyl-2,5-dihydropyrazolo[3,4-d]pyrimidin-4-one], 176 to 177 °C.

Regarding `O=c1c2c[nH]nc2ncn1Cc1cccnc1` [Compound 11, 5-(3-pyridinylmethyl)-2,5-dihydropyrazolo[3,4-d]-pyrimidin-4-one], the melting point fell in the range of 200 to 201 °C. In the case of `CCCCn1cc2c(=O)n(Cc3ccc(C)cc3)cnc2n1` [Compound 48, 5-(4-methylbenzyl)-2-butyl-2,5-dihydropyrazolo[3,4-d]-pyrimidin-4-one] it was 146 to 147 °C; in that of `Cn1cc2c(=O)n(Cc3ccc(F)cc3)cnc2n1` [Compound 31, 5-(4-fluorobenzyl)-2-methyl-2,5-dihydropyrazolo[3,4-d]-pyrimidin-4-one], 216 to 217 °C. In the case of `Cc1ccc(Cn2cnc3nn(-c4ccccc4)cc3c2=O)cc1` [Compound 51, 5-(4-methylbenzyl)-2-phenyl-2,5-dihydropyrazolo[3,4-d]-pyrimidin-4-one] it was 182 to 183 °C; in that of `Cn1cc2c(=O)n(Cc3ccccc3C#N)cnc2n1` [Compound 30, 5-(2-cyanobenzyl)-2-methyl-2,5-dihydropyrazolo[3,4-d]-pyrimidin-4-one], 198 to 199 °C. `CCCn1cc2c(=O)n(Cc3c(F)cccc3Cl)cnc2n1` [Compound 39, 5-(2-chloro-6-fluorobenzyl)-2-propyl-2,5-dihydropyrazolo[3,4-d]pyrimidin-4-one] came in with a melting point of 163 to 165 °C. In the case of `Cc1cc(C)c(Cn2cnc3n[nH]cc3c2=O)c(C)c1` [Compound 9, 5-(2,4,6-trimethylbenzyl)-2,5-dihydropyrazolo[3,4-d]-pyrimidin-4-one] it was 199 to 200 °C. For `Cn1cc2c(=O)n(Cc3ccc(Cl)cc3Cl)cnc2n1` [Compound 28, 5-(2,4-dichlorobenzyl)-2-methyl-2,5-dihydropyrazolo[3,4-d]pyrimidin-4-one] the value was 218 to 219 °C.

With `CCn1cc2c(=O)n(Cc3ccc(C)cc3)cnc2n1` [Compound 36, 5-(4-methylbenzyl)-2-ethyl-2,5-dihydropyrazolo[3,4-d]-pyrimidin-4-one], the melting point lay in the range of 178 to 179 °C.

`O=c1c2cn(-c3ccccc3)nc2ncn1Cc1ccccn1` [Compound 53, 5-(2-pyridinylmethyl)-2-phenyl-2,5-dihydropyrazolo[3,4-d]-pyrimidin-4-one]: the melting point fell in the range of 199 to 201 °C. In turn, `Cc1ccc(Cn2cnc3nn(C(C)C)cc3c2=O)cc1` [Compound 44, 5-(4-methylbenzyl)-2-isopropyl-2,5-dihydropyrazolo[3,4-d]-pyrimidin-4-one] returned a melting point of 145 to 147 °C. In the case of `CCCCn1cc2c(=O)n(Cc3c(F)cccc3Cl)cnc2n1` [Compound 47, 5-(2-chloro-6-fluorobenzyl)-2-butyl-2,5-dihydropyrazolo[3,4-d]pyrimidin-4-one] it was 156 to 157 °C; in that of `CCCn1cc2c(=O)n(Cc3c(F)cccc3F)cnc2n1` [Compound 41, 5-(2,6-difluorobenzyl)-2-propyl-2,5-dihydropyrazolo[3,4-d]pyrimidin-4-one], 167 to 168 °C; in that of `Cn1cc2c(=O)n(Cc3ccc(C(F)(F)F)cc3)cnc2n1` [Compound 22, 5-(4-trifluoromethylbenzyl)-2-methyl-2,5-dihydropyrazolo[3,4-d]pyrimidin-4-one], 211 to 212 °C. In the case of `Cn1cc2c(=O)n(Cc3ccccc3Cl)cnc2n1` [Compound 18, 5-(2-chlorobenzyl)-2-methyl-2,5-dihydropyrazolo[3,4-d]-pyrimidin-4-one] it was 205 to 206 °C; in that of `Cn1cc2c(=O)n(Cc3ccccc3C(F)(F)F)cnc2n1` [Compound 20, 5-(2-trifluoromethylbenzyl)-2-methyl-2,5-dihydropyrazolo[3,4-d]pyrimidin-4-one], 215 to 217 °C; in that of `CCCCn1cc2c(=O)n(Cc3c(F)cccc3F)cnc2n1` [Compound 49, 5-(2,6-difluorobenzyl)-2-butyl-2,5-dihydropyrazolo[3,4-d]-pyrimidin-4-one], 151 to 152 °C. For `Cc1cccc(Cn2cnc3nn(C)cc3c2=O)c1` [Compound 15, 5-(3-methylbenzyl)-2-methyl-2,5-dihydropyrazolo[3,4-d]-pyrimidin-4-one] the value was 114 to 117 °C; for `Cn1cc2c(=O)n(Cc3ccncc3)cnc2n1` [Compound 34, 5-(4-pyridinylmethyl)-2-methyl-2,5-dihydropyrazolo[3,4-d]-pyrimidin-4-one], 192 to 195 °C.

As to `Cn1cc2c(=O)n(Cc3ccccc3-c3ccccc3)cnc2n1` [Compound 24, 5-(2-phenylbenzyl)-2-methyl-2,5-dihydropyrazolo[3,4-d]-pyrimidin-4-one], the melting point fell in the range of 189 to 191 °C. `CCn1cc2c(=O)n(Cc3ccccn3)cnc2n1` [Compound 38, 5-(2-pyridinylmethyl)-2-ethyl-2,5-dihydropyrazolo[3,4-d]-pyrimidin-4-one] yielded a melting point of 190 to 191 °C. In the case of `Cc1ccc(Cn2cnc3nn(C)cc3c2=O)cc1` [Compound 16, 5-(4-methylbenzyl)-2-methyl-2,5-dihydropyrazolo[3,4-d]-pyrimidin-4-one] it was 224 to 226 °C; in that of `Cc1cc(C)c(Cn2cnc3nn(C)cc3c2=O)c(C)c1` [Compound 32, 5-(2,4,6-trimethylbenzyl)-2-methyl-2,5-dihydropyrazolo[3,4-d]pyrimidin-4-one], 182 to 184 °C.
